The target in data set [1] is DNA topoisomerase 2-alpha (Homo sapiens) (UniProt P11388). The data set can be described thus: Inhibition of human DNA topoisomerase 2alpha-mediated relaxation of supercoiled pRYG DNA at 100 uM after 30 mins by agarose gel electrophoresis.
The subject of another data set is CCRF-CEM. The data set can be described thus: Cytotoxicity against human CEM cells. The format is functional, cell-based.
The target of data set [2] is DNA topoisomerase 2-alpha (Homo sapiens) (UniProt P11388). Put plainly: Inhibition of human DNA topoisomerase 2alpha-mediated relaxation of supercoiled pRYG DNA at 50 uM after 30 mins by […].
Data set [3] has the same target. The data set can be described thus: Inhibition of human DNA topoisomerase 2alpha-mediated relaxation of supercoiled pRYG DNA at 10 uM after 30 mins by […].
Data set [4] in a line: Cytotoxicity against human Molt4/C8 cells. In kind it is functional, cell-based. The following applies: MOLT-4.
The target in data set [5] is DNA topoisomerase 2-alpha (Homo sapiens) (UniProt P11388). Put plainly: Inhibition of human DNA topoisomerase 2alpha-mediated relaxation of supercoiled pRYG DNA at 25 uM after 30 mins by […].
The test system of another data set is L1210. The data set can be described thus: Cytotoxicity against mouse L1210 cells. In kind it is functional, cell-based.
The subject of data set [6] is Mus musculus. Put plainly: Neurotoxicity in mouse at 30 mg/kg, ip after 4 hrs. The format is toxicity, organism-based. The settings on record: in vivo. Also noted: dose 30 mg/kg, route intraperitoneal.
For data set [7], the system named is Mus musculus. The data set can be described thus: Neurotoxicity in mouse at 100 mg/kg, ip after 4 hrs. In kind it is toxicity, organism-based. On the set-up: dose 100 mg/kg, route intraperitoneal. The following applies: in vivo.
For data set [8], the system named is Mus musculus. The data set can be described thus: Neurotoxicity in mouse at 300 mg/kg, ip after 0.5 hrs. The format is toxicity, organism-based. On the set-up: dose 300 mg/kg, route intraperitoneal. The following applies: in vivo.
The subject of data set [9] is Mus musculus. Put plainly: Neurotoxicity in mouse at 300 mg/kg, ip after 4 hrs. In kind it is toxicity, organism-based. On the set-up: dose 300 mg/kg, route intraperitoneal. The following applies: in vivo.
The test system of data set [10] is Mus musculus. The data set can be described thus: Neurotoxicity in mouse at 100 mg/kg, ip after 0.5 hrs. On the set-up: dose 100 mg/kg, route intraperitoneal. In kind it is toxicity, organism-based. The following applies: in vivo.

Active and inactive are the calls of the source. No cut-off for these calls is given here.

Chain of DNA topoisomerase 2-alpha (Homo sapiens) (P11388 whole entry): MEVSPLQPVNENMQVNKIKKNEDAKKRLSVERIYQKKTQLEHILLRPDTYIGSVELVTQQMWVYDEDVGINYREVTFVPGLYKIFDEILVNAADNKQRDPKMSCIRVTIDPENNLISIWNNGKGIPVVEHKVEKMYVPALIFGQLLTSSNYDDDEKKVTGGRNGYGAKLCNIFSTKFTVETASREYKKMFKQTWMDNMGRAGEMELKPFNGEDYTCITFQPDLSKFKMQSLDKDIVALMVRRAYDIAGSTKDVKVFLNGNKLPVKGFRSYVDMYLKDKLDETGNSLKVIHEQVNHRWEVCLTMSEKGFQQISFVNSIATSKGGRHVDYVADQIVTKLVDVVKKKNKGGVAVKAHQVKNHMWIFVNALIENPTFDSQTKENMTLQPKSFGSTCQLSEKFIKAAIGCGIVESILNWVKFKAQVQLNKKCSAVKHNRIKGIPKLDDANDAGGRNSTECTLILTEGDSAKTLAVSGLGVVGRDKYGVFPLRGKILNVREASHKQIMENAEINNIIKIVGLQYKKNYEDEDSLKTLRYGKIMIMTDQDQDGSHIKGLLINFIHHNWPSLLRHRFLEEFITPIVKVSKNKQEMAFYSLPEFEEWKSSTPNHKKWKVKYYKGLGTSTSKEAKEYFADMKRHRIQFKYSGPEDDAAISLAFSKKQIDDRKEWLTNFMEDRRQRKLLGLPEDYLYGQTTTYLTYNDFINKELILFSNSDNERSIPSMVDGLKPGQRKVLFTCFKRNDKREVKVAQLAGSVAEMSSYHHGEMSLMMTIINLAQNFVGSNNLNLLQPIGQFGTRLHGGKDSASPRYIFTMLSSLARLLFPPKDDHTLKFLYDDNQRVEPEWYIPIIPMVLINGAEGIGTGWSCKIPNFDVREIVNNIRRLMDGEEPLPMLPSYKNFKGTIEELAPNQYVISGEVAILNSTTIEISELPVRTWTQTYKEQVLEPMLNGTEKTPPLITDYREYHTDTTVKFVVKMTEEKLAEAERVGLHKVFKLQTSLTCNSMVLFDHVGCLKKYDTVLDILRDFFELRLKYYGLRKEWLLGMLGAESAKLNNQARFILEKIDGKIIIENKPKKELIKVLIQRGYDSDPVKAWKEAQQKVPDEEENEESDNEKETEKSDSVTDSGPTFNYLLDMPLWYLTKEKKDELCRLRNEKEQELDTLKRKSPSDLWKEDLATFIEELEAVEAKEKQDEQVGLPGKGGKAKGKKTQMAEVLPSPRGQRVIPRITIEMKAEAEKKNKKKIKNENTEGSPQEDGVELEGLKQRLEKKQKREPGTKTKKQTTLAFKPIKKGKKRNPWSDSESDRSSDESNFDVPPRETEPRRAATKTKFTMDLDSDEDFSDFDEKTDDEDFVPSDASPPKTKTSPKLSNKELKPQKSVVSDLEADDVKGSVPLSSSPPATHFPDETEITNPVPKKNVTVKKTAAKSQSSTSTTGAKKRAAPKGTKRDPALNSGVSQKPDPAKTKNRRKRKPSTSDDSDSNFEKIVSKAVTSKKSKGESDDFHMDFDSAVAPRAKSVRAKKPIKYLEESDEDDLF

In general, IC50 refers to the concentration needed to halve the response being measured. Turning to `CCOC(=O)[C@H](Cc1ccc(O)cc1)NC(=O)/C=C\C(=O)N1C/C(=C\c2ccc([N+](=O)[O-])cc2)C(=O)/C(=C/c2ccc([N+](=O)[O-])cc2)C1`, the outcome in data set [1], in [2] and in data set [5] was Active. The 50% inhibitory concentration (IC50) came out at 170 nM with CCRF-CEM, 280 nM in [4] and 600 nM with L1210. For the same compound, the outcome in [3] was inactive.
On to `CCOC(=O)[C@H](Cc1c[nH]c2ccccc12)NC(=O)/C=C\C(=O)N1C/C(=C\c2ccc([N+](=O)[O-])cc2)C(=O)/C(=C/c2ccc([N+](=O)[O-])cc2)C1`, for which the outcome in [1], in [2], in [3] and in data set [5] was Active. Besides, the IC50 in the data set with CCRF-CEM was 190 nM; in data set [4], 270 nM; with L1210 it was 620 nM.
On to `CCOC(=O)[C@H](Cc1ccccc1)NC(=O)/C=C\C(=O)N1C/C(=C\c2ccc([N+](=O)[O-])cc2)C(=O)/C(=C/c2ccc([N+](=O)[O-])cc2)C1`, for which the outcome in data set [1], in data set [2], in data set [3] and in data set [5] was Active. The IC50 in the data set on CCRF-CEM came out at 130 nM; in [4] it was 240 nM; with L1210, 200 nM.
Regarding `CCOC(=O)CNC(=O)/C=C\C(=O)N1C/C(=C\c2ccc([N+](=O)[O-])cc2)C(=O)/C(=C/c2ccc([N+](=O)[O-])cc2)C1`, the outcome in data set [1], in data set [2], in data set [3] and in [5] was Active. For the same compound, the values for the IC50 (in the data set with CCRF-CEM; in data set [4]; in the data set on L1210) were 110 nM, 230 nM and 840 nM, respectively. In addition, the Activity entry with Mus musculus [6], with Mus musculus [7], in the data set on Mus musculus [8] and with Mus musculus [9] was “Non-toxic” in each case.
Take `CCOC(=O)[C@H](CC(C)C)NC(=O)/C=C\C(=O)N1C/C(=C\c2ccccc2)C(=O)/C(=C/c2ccccc2)C1`: the outcome in data set [1], in data set [2], in data set [3] and in data set [5] was inactive. The IC50 in the data set with CCRF-CEM came out at 1200 nM; in data set [4], 1100 nM; in the data set with L1210, 4700 nM.
Turning to `C=CC(=O)N1C/C(=C\c2ccc([N+](=O)[O-])cc2)C(=O)/C(=C/c2ccc([N+](=O)[O-])cc2)C1`, inhibition in [4] was half-maximal at 150 nM (IC50).
As to `CCOC(=O)[C@@H](NC(=O)/C=C\C(=O)N1C/C(=C\c2ccc([N+](=O)[O-])cc2)C(=O)/C(=C/c2ccc([N+](=O)[O-])cc2)C1)C(C)C`, the outcome in [1], in data set [2] and in data set [5] was Active. The IC50 in the data set with CCRF-CEM was 170 nM; in data set [4], 220 nM; with L1210, 440 nM. Moreover, the outcome in data set [3] was inactive.
Turning to `CCOC(=O)[C@H](CCSC)NC(=O)/C=C\C(=O)N1C/C(=C\c2ccc([N+](=O)[O-])cc2)C(=O)/C(=C/c2ccc([N+](=O)[O-])cc2)C1`, the outcome in data set [1], in data set [2], in [3] and in data set [5] was Active. Besides, the IC50 was found to be 190 nM in the data set on CCRF-CEM, 250 nM in [4] and 580 nM in the data set with L1210.
As to `CCOC(=O)CNC(=O)/C=C\C(=O)N1C/C(=C\c2ccccc2)C(=O)/C(=C/c2ccccc2)C1`, the outcome in [1], in data set [2], in [3] and in data set [5] was inactive. Besides, the IC50 in the data set on CCRF-CEM was found to be 1300 nM; in [4], 1400 nM; in the data set with L1210 it was 6100 nM.
As to `O=C1/C(=C/c2ccc([N+](=O)[O-])cc2)CNC/C1=C\c1ccc([N+](=O)[O-])cc1`, the IC50 in [4] worked out at 8280 nM; with L1210, 32100 nM.
In the case of `CCOC(=O)[C@H](C)NC(=O)/C=C\C(=O)N1C/C(=C\c2ccc([N+](=O)[O-])cc2)C(=O)/C(=C/c2ccc([N+](=O)[O-])cc2)C1`, the outcome in data set [1] and in [2] was Active. Also, the 50% inhibitory concentration (IC50) turned out to be 83 nM in the data set with CCRF-CEM, 240 nM in [4] and 580 nM with L1210. Also, the result in data set [3] and in data set [5] was inactive.
In turn, `C=CC(=O)N1C/C(=C\c2ccccc2)C(=O)/C(=C/c2ccccc2)C1` registered an IC50 in data set [4] of 1420 nM.
As to `CCOC(=O)[C@H](CC(C)C)NC(=O)/C=C\C(=O)N1C/C(=C\c2ccc([N+](=O)[O-])cc2)C(=O)/C(=C/c2ccc([N+](=O)[O-])cc2)C1`, the result in data set [1] was Active. The IC50 with CCRF-CEM turned out to be 170 nM; in data set [4] it was 210 nM; in the data set with L1210, 240 nM. Further, the outcome in [2], in data set [3] and in data set [5] was inactive. Besides, the Activity result in the data set with Mus musculus [10] is “Non-toxic”.
As for `CCOC(=O)[C@H](Cc1ccc(O)cc1)NC(=O)/C=C\C(=O)N1C/C(=C\c2ccccc2)C(=O)/C(=C/c2ccccc2)C1`, the result in data set [1] was Active. In addition, the figures for the IC50 (with CCRF-CEM; in data set [4]; with L1210) were 350 nM, 570 nM and 4600 nM, respectively. The result in data set [2], in [3] and in data set [5] was inactive.
